Assay results as given in article PMC12892976, “Alkylation-based optimization of antifungal FPPS inhibitors yields a potent, broad-spectrum lipophilic zoledronate derivative” (mBio, 2025).
Where two headings read alike, the source gives them in different places.

Columns and labels:
Saccharomyces cerevisiae [1] = assay: MIC/MFC broth microdilution (CLSI); format: cell-based; conditions: Saccharomyces cerevisiae S288c
Protocol: (§1) Antifungal susceptibility was determined by broth microdilution according to the CLSI guidelines described in M27-Ed4 ([16]). […] MFC was determined by back-plating drug-treated cultures from MIC broths onto SDA plates. The MFC was defined as the lowest concentration from which no colonies could be cultured.

Candida albicans [2] = assay: MIC/MFC broth microdilution (CLSI); format: cell-based; conditions: Candida albicans SC5314
Protocol: as §1

[3] = system: Cryptococcus deuterogattii; assay: checkerboard drug interaction (FICI, MICc);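 for all read-outs here: simplified diagonal checkerboard screen pairing antifungal drugs with FPPS inhibitors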; format: cell-based; conditions: C. deuterogattii; for INH FD (MIC-MICc fold decrease): fold decrease of inhibitor MIC
Protocol: (§2) Drug interactions between antifungals and FPPS inhibitors were investigated using a simplified checkerboard diagonal screening method ([45]). […] FICIs were determined according to the Loewe additivity model ([17]).

Cryptococcus neoformans [4] = assay: checkerboard drug interaction (FICI, MICc);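 for all read-outs here: antifungal plus FPPS inhibitor pairs tested against Cryptococcus neoformans by simplified diagonal checkerboard screening, FICI computed under the Loewe additivity model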; format: cell-based; conditions: C. neoformans; for INH FD (MIC-MICc fold decrease): fold decrease of inhibitor MIC
Protocol: as §2

Saccharomyces cerevisiae [5] = assay: checkerboard drug interaction (FICI, MICc); format: cell-based; design: INH MICc / INH MICc (ITR:INH) / INH MICc (KET:INH) / INH MICc (FLC:INH): unit not given beside the values;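 note: simplified diagonal checkerboard screen pairing antifungals with FPPS inhibitors, FICI calculated under the Loewe additivity model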
Candida glabrata [6] = assay: checkerboard drug interaction (FICI, MICc);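 for all read-outs here: simplified diagonal checkerboard screen pairing antifungals with FPPS inhibitors, FICI calculated under the Loewe additivity model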; format: cell-based; conditions: C. glabrata; for INH FD (MIC-MICc fold decrease): fold decrease of inhibitor MIC
Protocol: as §2

Candida albicans [7] = assay: checkerboard drug interaction (FICI, MICc);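 for all read-outs here: antifungal plus FPPS inhibitor combinations on Candida albicans tested by a simplified diagonal checkerboard screen, with FICI calculated under the Loewe additivity model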; format: cell-based; conditions: C. albicans; for INH FD (MIC-MICc fold decrease): fold decrease of inhibitor MIC
Protocol: as §2

Aspergillus flavus [8] = assay: checkerboard drug interaction (FICI, MICc);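 note: simplified diagonal checkerboard screen pairing azole antifungals with FPPS inhibitors, FICI calculated under the Loewe additivity model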; format: cell-based; design: INH MICc (KET:INH) / INH MICc (FLC:INH): unit not given beside the values; conditions: A. flavus
Aspergillus fumigatus [9] = assay: checkerboard drug interaction (FICI, MICc); format: cell-based;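 note: simplified diagonal checkerboard screen pairing antifungals with FPPS inhibitors against Aspergillus fumigatus, with FICI calculated under the Loewe additivity model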
Protocol: as §2

Trichophyton rubrum [10] = assay: checkerboard drug interaction (FICI, MICc);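 note: simplified diagonal checkerboard screen pairing azole antifungals with FPPS inhibitors, FICI calculated under the Loewe additivity model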; format: cell-based; conditions: T. rubrum
Protocol: as §2

HEK-293T cells = assay: MTT reduction cytotoxicity assay; format: cell-based; conditions: Homo sapiens, HEK-293T, 72 h, MTT, 72 h
eight fungal species [11] = assay: MIC/MFC summary across the eight fungal species of Table 1; format: cell-based
Protocol: The antifungal activity of these compounds was evaluated according to CLSI guidelines ([16]).

eight fungal species [12] = assay: checkerboard interaction with azoles, summary across the eight species; format: cell-based
Description: Synergy between lipophilic FPPS inhibitors and azole antifungals was investigated by determining the fractional inhibitory concentration index (FICI) (Fig. 2; Table S1 Fig. S1) ([17]). […]. Derivatives PLA9 and 11, and PDA9, 11, and 12 antagonized azoles in C. albicans, C. neoformans, and C. deuterogattii, yet were largely synergistic in C. glabrata and S. cerevisiae. […].

[13] = system: Cryptococcus deuterogattii; assay: MIC/MFC broth microdilution (CLSI); conditions: Cryptococcus deuterogattii;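 note: broth microdilution per CLSI M27-Ed4. MFC is the lowest concentration yielding no colonies when MIC broths are subcultured onto SDA plates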
Protocol: as §1

Cryptococcus neoformans [14] = assay: MIC/MFC broth microdilution (CLSI); conditions: Cryptococcus neoformans;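 note: susceptibility testing followed the CLSI M27-Ed4 broth microdilution document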
Protocol: as §1

Candida glabrata [15] = assay: MIC/MFC broth microdilution (CLSI); conditions: Nakaseomyces glabratus, CBS138;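 note: broth microdilution following CLSI M27-Ed4, MFC taken as the lowest drug level yielding no growth once MIC wells were subcultured on SDA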
Protocol: as §1

Aspergillus flavus [16] = assay: MIC/MFC broth microdilution (CLSI); conditions: ATCC204304
Protocol: as §1

Aspergillus fumigatus [17] = assay: MIC/MFC broth microdilution (CLSI); conditions: ATCC204305
Protocol: as §1

Trichophyton rubrum [18] = assay: MIC/MFC broth microdilution (CLSI); conditions: Trichophyton rubrum
Protocol: as §1

[19] = FLC:INH combination, MIC of the inhibitor in combination with FLC
[20] = FLC:INH combination, fold decrease of FLC MIC
[21] = ITR:INH combination, MIC of the inhibitor in combination with ITR
[22] = ITR:INH combination, fold decrease of ITR MIC
[23] = KET:INH combination, MIC of the inhibitor in combination with KET
[24] = KET:INH combination, fold decrease of KET MIC
[25] = Fractional Inhibitory Concentration Index, fluconazole + inhibitor
[26] = Fractional Inhibitory Concentration Index, itraconazole + inhibitor
[27] = Fractional Inhibitory Concentration Index, ketoconazole + inhibitor
[28] = MIC of the inhibitor in combination with fluconazole
[29] = MIC of the inhibitor in combination with itraconazole
[30] = MIC of the inhibitor in combination with ketoconazole
[31] = MIC-MICc fold decrease of fluconazole, negative = increase
[32] = MIC-MICc fold decrease of itraconazole, negative = increase
[33] = MIC-MICc fold decrease of ketoconazole, negative = increase
[34] = MIC-MICc fold decrease of the inhibitor, with fluconazole
[35] = MIC-MICc fold decrease of the inhibitor, with itraconazole
[36] = MIC-MICc fold decrease of the inhibitor, with ketoconazole

CCCCCCCCCCCN1CCC[C@H]1C(=O)N[C@@H](CC(=O)OC)C(=O)OC [dmPLA11]
0.53: FICI (ITR:INH) (Aspergillus fumigatus [9]; [26])
1.25: FICI (Candida albicans [7]; FLC:INH combination) | FICI (Candida albicans [7]; ITR:INH combination) | FICI (Candida albicans [7]; KET:INH combination) | FICI (ITR:INH) (Aspergillus flavus [8]; [26]) | FICI (FLC:INH) (Aspergillus fumigatus [9]; [25])
8 µg/mL: MFC (Saccharomyces cerevisiae [1]) | MIC (Saccharomyces cerevisiae [1]) | MIC [13]
1.5: FICI ([3]; FLC:INH combination) | FICI (Cryptococcus neoformans [4]; FLC:INH combination) | FICI (Cryptococcus neoformans [4]; ITR:INH combination) | FICI (Cryptococcus neoformans [4]; KET:INH combination) | FICI (KET:INH) (Aspergillus fumigatus [9]; [27])
32: INH MICc [3, 19] | INH MICc [3, 21] | INH MICc [3, 23] | INH MICc (Cryptococcus neoformans [4]; [19]) | INH MICc (Cryptococcus neoformans [4]; [21]) | INH MICc (Cryptococcus neoformans [4]; [23]) | INH FD (ITR:INH) (Aspergillus fumigatus [9]; [35]) | INH MICc (FLC:INH) (Trichophyton rubrum [10]; [28]) | INH MICc (ITR:INH) (Trichophyton rubrum [10]; [29]) | INH MICc (KET:INH) (Trichophyton rubrum [10]; [30])
> 128 µg/mL: MFC (Aspergillus flavus [16]) | MIC (Aspergillus flavus [16]) | MFC (Aspergillus fumigatus [17]) | MFC (Trichophyton rubrum [18])
8: KET FD (MIC-MICc fold decrease) [3, 24] | INH MICc (Candida albicans [7]; [19]) | INH MICc (Candida albicans [7]; [21]) | INH MICc (Candida albicans [7]; [23]) | ITR FD (ITR:INH) (Trichophyton rubrum [10]; [32])
4: INH MICc (FLC:INH) (Saccharomyces cerevisiae [5]; [28]) | INH MICc (KET:INH) (Saccharomyces cerevisiae [5]; [30]) | INH FD (ITR:INH) (Saccharomyces cerevisiae [5]; [35]) | INH MICc (Candida glabrata [6]; [21]) | INH FD (MIC-MICc fold decrease) (Candida glabrata [6]; ITR:INH combination) | INH MICc (Candida glabrata [6]; [23]) | INH FD (MIC-MICc fold decrease) (Candida glabrata [6]; KET:INH combination) | INH FD (MIC-MICc fold decrease) (Candida albicans [7]; FLC:INH combination) | INH FD (MIC-MICc fold decrease) (Candida albicans [7]; ITR:INH combination) | INH FD (MIC-MICc fold decrease) (Candida albicans [7]; KET:INH combination) | INH FD (ITR:INH) (Aspergillus flavus [8]; [35]) | INH FD (KET:INH) (Aspergillus flavus [8]; [36]) | FLC FD (FLC:INH) (Aspergillus fumigatus [9]; [31]) | FLC FD (FLC:INH) (Trichophyton rubrum [10]; [31]) | KET FD (KET:INH) (Trichophyton rubrum [10]; [33])
29.3 µg/mL: MIC (eight fungal species [11]; geometric mean across eight species, read-out: GM fungal MIC) | MIC (eight fungal species [11]; read-out: Geometric mean MIC)
16: INH MICc (Candida glabrata [6]; [19])
83 µg/mL: MFC (eight fungal species [11]; across eight species, read-out: Geometric mean MFC)
-2: ITR FD (ITR:INH) (Saccharomyces cerevisiae [5]; [32]) | INH FD (FLC:INH) (Trichophyton rubrum [10]; [34]) | INH FD (ITR:INH) (Trichophyton rubrum [10]; [35]) | INH FD (KET:INH) (Trichophyton rubrum [10]; [36])
128 µg/mL: MFC [13] | MIC (Aspergillus fumigatus [17])
18: GM fungal MICc (eight fungal species [12]; geometric mean MIC in combination with azoles)
1: INH FD (MIC-MICc fold decrease) ([3]; FLC:INH combination) | ITR FD (MIC-MICc fold decrease) [3, 22] | INH FD (MIC-MICc fold decrease) ([3]; ITR:INH combination) | INH FD (MIC-MICc fold decrease) ([3]; KET:INH combination) | FLC FD (MIC-MICc fold decrease) (Cryptococcus neoformans [4]; [20]) | ITR FD (MIC-MICc fold decrease) (Cryptococcus neoformans [4]; [22]) | KET FD (MIC-MICc fold decrease) (Cryptococcus neoformans [4]; [24]) | FICI (FLC:INH) (Saccharomyces cerevisiae [5]; [25]) | FICI (KET:INH) (Saccharomyces cerevisiae [5]; [27]) | FLC FD (MIC-MICc fold decrease) (Candida glabrata [6]; [20]) | INH FD (MIC-MICc fold decrease) (Candida glabrata [6]; FLC:INH combination) | FICI (Candida glabrata [6]; ITR:INH combination) | FICI (Candida glabrata [6]; KET:INH combination) | FLC FD (MIC-MICc fold decrease) (Candida albicans [7]; [20]) | ITR FD (MIC-MICc fold decrease) (Candida albicans [7]; [22]) | KET FD (MIC-MICc fold decrease) (Candida albicans [7]; [24]) | FLC FD (FLC:INH) (Aspergillus flavus [8]; [31]) | ITR FD (ITR:INH) (Aspergillus flavus [8]; [32]) | INH FD (FLC:INH) (Aspergillus flavus [8]; [34]) | INH FD (FLC:INH) (Aspergillus fumigatus [9]; [34]) | INH FD (KET:INH) (Aspergillus fumigatus [9]; [36])
32 µg/mL: MFC (Candida albicans [2]) | MIC (Candida albicans [2]) | MIC (Candida glabrata [15])
2.13: FICI (ITR:INH) (Trichophyton rubrum [10]; [26])
3: FICI (Candida glabrata [6]; FLC:INH combination)
0.75: FICI (KET:INH) (Aspergillus flavus [8]; [27])
1.13: FICI ([3]; KET:INH combination)
2: FLC FD (MIC-MICc fold decrease) [3, 20] | FICI ([3]; ITR:INH combination) | INH FD (MIC-MICc fold decrease) (Cryptococcus neoformans [4]; FLC:INH combination) | INH FD (MIC-MICc fold decrease) (Cryptococcus neoformans [4]; ITR:INH combination) | INH FD (MIC-MICc fold decrease) (Cryptococcus neoformans [4]; KET:INH combination) | INH MICc (ITR:INH) (Saccharomyces cerevisiae [5]; [29]) | FLC FD (FLC:INH) (Saccharomyces cerevisiae [5]; [31]) | KET FD (KET:INH) (Saccharomyces cerevisiae [5]; [33]) | INH FD (FLC:INH) (Saccharomyces cerevisiae [5]; [34]) | INH FD (KET:INH) (Saccharomyces cerevisiae [5]; [36]) | ITR FD (MIC-MICc fold decrease) (Candida glabrata [6]; [22]) | KET FD (MIC-MICc fold decrease) (Candida glabrata [6]; [24]) | FICI (FLC:INH) (Aspergillus flavus [8]; [25]) | KET FD (KET:INH) (Aspergillus flavus [8]; [33]) | INH MICc (ITR:INH) (Aspergillus fumigatus [9]; [29]) | ITR FD (ITR:INH) (Aspergillus fumigatus [9]; [32]) | KET FD (KET:INH) (Aspergillus fumigatus [9]; [33])
64: INH MICc (ITR:INH) (Aspergillus flavus [8]; [29]) | INH MICc (KET:INH) (Aspergillus flavus [8]; [30]) | INH MICc (FLC:INH) (Aspergillus fumigatus [9]; [28]) | INH MICc (KET:INH) (Aspergillus fumigatus [9]; [30])
64 µg/mL: MFC (Cryptococcus neoformans [14]) | MFC (Candida glabrata [15])
no antagonism: antagonism with azole drugs (eight fungal species [12]; any of the azole drugs in any species tested)
16 µg/mL: MIC (Cryptococcus neoformans [14]) | MIC (Trichophyton rubrum [18])
256: INH MICc (FLC:INH) (Aspergillus flavus [8]; [28])
9.09 µg/mL: IC50 (HEK-293T cells; HEK-293T cells, read-out: IC50) | IC50 (HEK-293T cells; read-out: HEK IC50)
2.25: FICI (ITR:INH) (Saccharomyces cerevisiae [5]; [26]) | FICI (FLC:INH) (Trichophyton rubrum [10]; [25]) | FICI (KET:INH) (Trichophyton rubrum [10]; [27])
